Source: patent US10745346B2, “Agonists of protein tyrosine phosphatase SHP-1” (priority 2015, dated 2020)

Legend:
[1] = target: Recombinant SHP-1 protein (Homo sapiens, UniProt P29350); experiment: SHP-1 phosphatase activity assay (RediPlate 96 EnzChek Tyrosine Phosphatase Assay kit); format: biochemical; conditions: SC derivatives at 1 μM for 2 hr; recombinant SHP-1 25 ng; control DMSO = 100; mean±SD (N=3)
Method: Effects of SC Derivatives on Phosphatase Activity in Recombinant SHP-1 RediPlate 96 EnzChek Tyrosine Phosphatase Assay kit (R-22067) was used for SHP-1 activity assay (Molecular Probes). Recombinant SHP-1 protein (25 ng) was reacted with SC derivatives at 1 μM for 2 hr. Then the SHP-1 phosphatase activity assay was performed according to the user's manual and the absorbance was measured at 465 nm. The control group was DMSO, which functioned as the solvent of the SC derivatives. The values were expressed by mean±SD (N=3).

[2] = test system: PLC5 cells (a hepatocellular carcinoma cell line); experiment: Cytotoxicity, MTT cell viability assay; format: cell-based; conditions: 72 h exposure
Method: PLC5 cells (a hepatocellular carcinoma cell line) were seeded at 5×10^3 cells per well in 96-well plates. Then, cells were exposed to SC derivatives at the indicated doses for 72 h. After that, cells were incubated with MTT (1 mg/ml) (Sigma-Aldrich, St. Louis, Mo.) for 2 h at 37° C. Cell viability was then assessed by measuring the absorbance at 570 nm using a microplate reader.

Sequence of Recombinant SHP-1 protein (P29350 whole entry): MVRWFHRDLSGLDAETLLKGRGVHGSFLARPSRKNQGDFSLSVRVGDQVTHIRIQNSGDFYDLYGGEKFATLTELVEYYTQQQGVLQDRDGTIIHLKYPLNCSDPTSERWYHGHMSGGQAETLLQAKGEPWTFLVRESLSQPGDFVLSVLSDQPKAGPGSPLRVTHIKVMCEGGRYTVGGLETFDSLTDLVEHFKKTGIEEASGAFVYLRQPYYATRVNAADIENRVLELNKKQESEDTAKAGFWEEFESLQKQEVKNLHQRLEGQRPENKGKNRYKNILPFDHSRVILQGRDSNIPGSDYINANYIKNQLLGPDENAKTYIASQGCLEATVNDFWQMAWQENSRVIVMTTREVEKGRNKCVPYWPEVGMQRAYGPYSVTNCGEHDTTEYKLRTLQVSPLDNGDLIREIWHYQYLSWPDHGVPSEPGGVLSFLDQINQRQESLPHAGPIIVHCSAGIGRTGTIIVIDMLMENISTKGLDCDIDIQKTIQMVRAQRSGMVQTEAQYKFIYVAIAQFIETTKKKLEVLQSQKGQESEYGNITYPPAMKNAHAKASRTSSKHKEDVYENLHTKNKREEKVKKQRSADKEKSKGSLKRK

With Cc1cc(Oc2cc(NC(=O)Nc3ccc(C)c(Oc4ccc(C#N)c(C)c4)c3)ccc2C)ccc1C#N [compound 98, 1,3-bis(3-(4-cyano-3-methylphenoxy)-4-methylphenyl)urea] the “SHP-1 Activity (% of control)” value [1] was 88.80 ± 14.30 % of control and the IC50 [2] was 0.14 µM.
N#Cc1ccc(Oc2ccc(NC(=O)Nc3ccc(Cl)c(C(F)(F)F)c3)c(F)c2)cc1Cl [compound 108, 1-(4-chloro-3-(trifluoromethyl)phenyl)-3-(4-(3-chloro-4-cyanophenoxy)-2-fluorophenyl)urea] was tested, and the “SHP-1 Activity (% of control)” value [1] was 133.11 ± 12.03 % of control and the IC50 [2] was greater than 10 µM.
C#Cc1cccc(NC(=O)Nc2ccc(Oc3ccc(CC#N)cc3)cc2)c1 [compound 170, 1-(4-(4-(cyanomethyl)phenoxy)phenyl)-3-(3-ethynylphenyl)urea] was tested, and the “SHP-1 Activity (% of control)” value [1] was 101.42 ± 7.86 % of control and the IC50 [2] was greater than 10 µM.
With O=C(Nc1ccc(Cl)c(C(F)(F)F)c1)Nc1ccc(Cl)c(C(F)(F)F)c1 [compound 78, 1,3-bis(4-chloro-3-(trifluoromethyl)phenyl)urea] the “SHP-1 Activity (% of control)” value [1] was 113.65 ± 13.93 % of control and the IC50 [2] was greater than 10 µM.
N#Cc1ccc(Oc2cccc(NC(=O)C3(C(=O)Nc4cccc(Oc5ccc(C#N)cc5)c4)CC3)c2)cc1 [compound 67, N, N′-bis(3-(4-cyanophenoxy)phenyl)cyclopropane-1,1-dicarboxamide] was tested, and the “SHP-1 Activity (% of control)” value [1] was 94.05 ± 16.11 % of control and the IC50 [2] was greater than 10 µM.
With N#Cc1ccc(Oc2ccc3c(c2)OCCN3C(=O)Nc2cc(C(F)(F)F)cc(C(F)(F)F)c2)cc1 [compound 164, N-(3,5-bis(trifluoromethyl)phenyl)-7-(4-cyanophenoxy)-2H-benzo[b][1,4]oxazine-4(3H)-carboxamide] the “SHP-1 Activity (% of control)” value [1] was 83.70 ± 10.90 % of control and the IC50 [2] was greater than 10 µM.
For N#CCc1ccc(NC(=O)Nc2ccc(Oc3ccc(CC#N)cc3)cc2)cc1 [compound 169, 1-(4-(4-(cyanomethyl)phenoxy)phenyl)-3-(4-(cyanomethyl)phenyl)urea], the “SHP-1 Activity (% of control)” value [1] was 126.25 ± 1.46 % of control and the IC50 [2] was greater than 10 µM.
N#Cc1ccc(Oc2ccc(Cl)c(NC(=O)Nc3ccc(F)c(C(F)(F)F)c3)c2)cc1 [compound 143, 1-(2-chloro-5-(4-cyanophenoxy)phenyl)-3-(4-fluoro-3-(trifluoromethyl)phenyl)urea] was tested, and the “SHP-1 Activity (% of control)” value [1] was 198.37 ± 32.5 % of control and the IC50 [2] was 0.61 µM.
With N#CCc1ccc(Oc2ccc(NC(=O)Nc3cccc(C(F)(F)F)c3)cc2)cc1 [compound 173, 1-(4-(4-(cyanomethyl)phenoxy)phenyl)-3-(3-(trifluoromethyl)phenyl)urea] the “SHP-1 Activity (% of control)” value [1] was 110.75 ± 1.18 % of control and the IC50 [2] was greater than 10 µM.
With N#Cc1ccc(Oc2cc(NC(=O)Nc3cccc(C(F)(F)F)c3)ccc2F)cc1 [compound 151, 1-(3-(4-cyanophenoxy)-4-fluorophenyl)-3-(3-(trifluoromethyl)phenyl)urea] the “SHP-1 Activity (% of control)” value [1] was 136.00 ± 9.09 % of control and the IC50 [2] was 0.59 µM.
For N#Cc1ccc(Oc2cc(NC(=O)Nc3ccc(Cl)c(C(F)(F)F)c3)ccc2F)cc1 [compound 111, 1-(4-chloro-3-(trifluoromethyl)phenyl)-3-(3-(4-cyanophenoxy)-4-fluorophenyl)urea], the “SHP-1 Activity (% of control)” value [1] was 156.55 ± 5.99 % of control and the IC50 [2] was 0.24 µM.
In the case of N#Cc1ccc(Oc2ccc3c(c2)N(C(=O)Nc2ccc(F)c(C(F)(F)F)c2)CCO3)cc1 [compound 156, 6-(4-cyanophenoxy)-N-(4-fluoro-3-(trifluoromethyl)phenyl)-2H-benzo[b][1,4]oxazine-4(3H)-carboxamide], the “SHP-1 Activity (% of control)” value [1] is reported as 112.47 ± 7.98 % of control and the IC50 [2] is reported as 1.87 µM.
With N#CCc1ccc(NC(=O)Nc2cc(Oc3ccc(C#N)cc3)ccc2F)cc1 [compound 146, 1-(4-(cyanomethyl)phenyl)-3-(5-(4-cyanophenoxy)-2-fluorophenyl)urea] the “SHP-1 Activity (% of control)” value [1] was 139.68 ± 6.63 % of control and the IC50 [2] was 2.59 µM.
For N#Cc1ccc(Oc2ccc3c(c2)N(C(=O)Nc2ccc(Cl)c(C(F)(F)F)c2)CCO3)cc1 [compound 157, N-(4-chloro-3-(trifluoromethyl)phenyl)-6-(4-cyanophenoxy)-2H-benzo[b][1,4]oxazine-4(3H)-carboxamide], the “SHP-1 Activity (% of control)” value [1] was 106.27 ± 6.28 % of control and the IC50 [2] was 1.76 µM.
For N#Cc1ccc(Oc2cc(NC(=O)Nc3ccc(F)c(C(F)(F)F)c3)ccc2Cl)cc1 [compound 137, 1-(4-chloro-3-(4-cyanophenoxy)phenyl)-3-(4-fluoro-3-(trifluoromethyl)phenyl)urea], the “SHP-1 Activity (% of control)” value [1] was 180.35 ± 35 % of control and the IC50 [2] was 0.49 µM.
In the case of N#Cc1ccc(Oc2ccc3c(c2)OCCN3C(=O)Nc2cccc(C(F)(F)F)c2)cc1 [compound 163, 7-(4-cyanophenoxy)-N-(3-(trifluoromethyl)phenyl)-2H-benzo[b][1,4]oxazine-4(3H)-carboxamide], the “SHP-1 Activity (% of control)” value [1] is reported as 142.36 ± 2.16 % of control and the IC50 [2] is reported as 2.51 µM.
With Cc1ccc(NC(=O)Nc2ccc(C)c(Oc3ccc(C#N)c(Br)c3)c2)cc1Oc1ccc(C#N)c(Br)c1 [compound 83, 1,3-bis(3-(3-bromo-4-cyanophenoxy)-4-methylphenyl)urea] the “SHP-1 Activity (% of control)” value [1] was 110.68 ± 13.38 % of control and the IC50 [2] was 0.25 µM.
In the case of C#Cc1cccc(NC(=O)Nc2ccc(F)c(Oc3ccc(C#N)cc3)c2)c1 [compound 150, 1-(3-(4-cyanophenoxy)-4-fluorophenyl)-3-(3-ethynylphenyl)urea], the “SHP-1 Activity (% of control)” value [1] is reported as 129.59 ± 59 % of control and the IC50 [2] is reported as 2.23 µM.
N#CCc1ccc(Oc2ccc(NC(=O)Nc3cc(C(F)(F)F)cc(C(F)(F)F)c3)cc2)cc1 [compound 172, 1-(3,5-bis(trifluoromethyl)phenyl)-3-(4-(4-(cyanomethyl)phenoxy)phenyl) urea] was tested, and the “SHP-1 Activity (% of control)” value [1] was 215.34 ± 12.22 % of control and the IC50 [2] was 0.41 µM.
With N#CCc1ccc(NC(=O)Nc2ccc(F)c(Oc3ccc(C#N)cc3)c2)cc1 [compound 153, 1-(4-(cyanomethyl)phenyl)-3-(3-(4-cyanophenoxy)-4-fluorophenyl)urea] the “SHP-1 Activity (% of control)” value [1] was 135.54 ± 5.11 % of control and the IC50 [2] was 1.83 µM.
Cc1ccc(NC(=O)Nc2ccc(C)c(Oc3ccc(C#N)nc3)c2)cc1Oc1ccc(C#N)cc1 [compound 99, 1-(3-(4-cyanophenoxy)-4-methylphenyl)-3-(3-((6-cyanopyridin-3-yl)oxy)-4-methylphenyl)urea] was tested, and the “SHP-1 Activity (% of control)” value [1] was 99.86 ± 3.65 % of control and the IC50 [2] was 0.18 µM.
N#CCc1ccc(Oc2ccc(NC(=O)Nc3ccc(F)c(C(F)(F)F)c3)cc2)cc1 [compound 168, 1-(4-(4-(cyanomethyl)phenoxy)phenyl)-3-(4-fluoro-3-(trifluoromethyl)phenyl)urea] was tested, and the “SHP-1 Activity (% of control)” value [1] was 147.25 ± 78.63 % of control and the IC50 [2] was 1.07 µM.
N#Cc1ccc(Oc2ccc3c(c2)N(C(=O)Nc2cc(C(F)(F)F)cc(C(F)(F)F)c2)CCO3)cc1 [compound 158, N-(3,5-bis(trifluoromethyl)phenyl)-6-(4-cyanophenoxy)-2H-benzo[b][1,4]oxazine-4(3H)-carboxamide] was tested, and the “SHP-1 Activity (% of control)” value [1] was 102.07 ± 3.47 % of control and the IC50 [2] was 3.31 µM.
In the case of N#Cc1ccc(Oc2ccc3cccc(NC(=O)Nc4ccc(Cl)c(C(F)(F)F)c4)c3c2)cc1 [compound 72, 1-(4-chloro-3-(trifluoromethyl)phenyl)-3-(7-(4-cyanophenoxy)naphthalen-1-yl)urea], the “SHP-1 Activity (% of control)” value [1] is reported as 131.47 ± 14.99 % of control and the IC50 [2] is reported as 2.25 µM.
In the case of N#Cc1ccc(Oc2ccc3c(c2)N(C(=O)Nc2cccc(C(F)(F)F)c2)CCO3)cc1 [compound 159, 6-(4-cyanophenoxy)-N-(3-(trifluoromethyl)phenyl)-2H-benzo[b][1,4]oxazine-4(3H)-carboxamide], the “SHP-1 Activity (% of control)” value [1] is reported as 98.04 ± 8.80 % of control and the IC50 [2] is reported as 2.56 µM.
C#Cc1cccc(NC(=O)N2CCOc3cc(Oc4ccc(C#N)cc4)ccc32)c1 [compound 162, 7-(4-cyanophenoxy)-N-(3-ethynylphenyl)-2H-benzo[b][1,4]oxazine-4(3H)-carboxamide] was tested, and the “SHP-1 Activity (% of control)” value [1] was 141.39 ± 15.44 % of control and the IC50 [2] was 3.06 µM.
For N#CC1=CCC(OC2=CC(NC(=O)C(=O)Nc3cccc(Oc4ccc(C#N)cc4)c3)CC=C2)C=C1 (stereo not drawn) [compound 70, N^1-(3-((4-cyanocyclohexa-2,4-dien-1-yl)oxy)cyclohexa-2,4-dien-1-yl)-N^2-(3-(4-cyanophenoxy)phenyl)oxalamide], the “SHP-1 Activity (% of control)” value [1] was 91.23 ± 15.95 % of control and the IC50 [2] was greater than 10 µM.
N#CCc1ccc(NC(=O)Nc2ccc(Cl)c(Oc3ccc(C#N)cc3)c2)cc1 [compound 149, 1-(4-chloro-3-(4-cyanophenoxy)phenyl)-3-(4-(cyanomethyl)phenyl)urea] was tested, and the “SHP-1 Activity (% of control)” value [1] was 140.90 ± 6.65 % of control and the IC50 [2] was 1.38 µM.
N#CCc1ccc(NC(=O)N2CCOc3cc(Oc4ccc(C#N)cc4)ccc32)cc1 [compound 167, N-(4-(cyanomethyl)phenyl)-7-(4-cyanophenoxy)-2H-benzo[b][1,4]oxazine-4(3H)-carboxamide] was tested, and the “SHP-1 Activity (% of control)” value [1] was 110.58 ± 10.14 % of control and the IC50 [2] was 2.55 µM.
With N#Cc1ccc(Oc2cc(NC(=O)Nc3ccc(F)c(C(F)(F)F)c3)ccc2Cl)cc1Cl [compound 181, 1-(4-chloro-3-(3-chloro-4-cyanophenoxy)phenyl)-3-(4-fluoro-3-(trifluoromethyl)phenyl)urea] the “SHP-1 Activity (% of control)” value [1] was 106.88 ± 3.58 % of control and the IC50 [2] was 0.93 µM.
